The values that follow come from ChEMBL document CHEMBL1155694, “Sesquiterpene alkaloids from Tripterygium hypoglaucum and Tripterygium wilfordii: a new class of potent anti-HIV agents” (J Nat Prod, 2000).

Converted amounts (≈) assume the structure as drawn. The source made the active and inactive calls. The rule behind the calls is not given here.

One series relates to H9. Nature of the series: Cytotoxicity against human H9 cells. In kind it is cell-based.
The test system of series [1] is Human immunodeficiency virus 1. In words: Antiviral activity against HIV1 in human H9 cells assessed as inhibition of viral replication. It is filed as functional, organism-based. The conditions noted are these: for EC50: Human immunodeficiency virus 1, H9.
Series [2] is described as follows: Therapeutic index, ratio of IC50 for human H9 cells to EC50 for HIV1. The following applies: read-out: Ratio IC50/EC50. In kind it is cell-based.

`CC(=O)OC[C@]12[C@H](OC(C)=O)[C@H](OC(C)=O)[C@@H]3[C@@H](OC(=O)c4ccccc4)[C@@]14O[C@@]3(C)COC(=O)c1cccnc1C(C)C(C)C(=O)O[C@@H]([C@H](OC(=O)c1cccnc1)[C@@H]2OC(C)=O)[C@]4(C)O` (some centres undefined) [HYPONINE D] displayed an IC50 with H9 of 20.2 µg/mL (≈ 21.7 µM). Also, the result in series [1] was inactive.
For the molecule `CC(=O)OC[C@]12[C@H](OC(C)=O)[C@H](OC(C)=O)[C@@H]3[C@@H](OC(C)=O)[C@@]14O[C@@]3(C)COC(=O)c1cccnc1C(C)C(C)C(=O)O[C@@H]([C@H](OC(=O)c1ccco1)[C@@H]2OC(C)=O)[C@]4(C)O` (some centres undefined) [HYPONINE F], in the series on H9, the IC50 is > 100 µg/mL. Further, the selectivity ratio in series [2] was > 2.84. In addition, in series [1], the EC50 stood at 35.2 µg/mL (≈ 41 µM).
Regarding `CC(=O)OC[C@]12[C@H](OC(C)=O)[C@H](OC(C)=O)[C@@H]3[C@@H](OC(C)=O)[C@@]14O[C@@]3(C)COC(=O)c1cnccc1C(C)C(C)(O)C(=O)O[C@@H]([C@H](OC(=O)c1ccco1)[C@@H]2OC(C)=O)[C@]4(C)O` (some centres undefined) [HYPOGLAUNINE B], the half-inhibitory concentration (IC50) with H9 is > 100 µg/mL. Besides, in series [2], the selectivity ratio was > 1000. The EC50 in series [1] stood at 0.1 µg/mL (≈ 0.114 µM).
On the same counts, the results for `CC(=O)OC[C@]12[C@H](OC(C)=O)[C@H](OC(C)=O)[C@@H]3[C@@H](OC(=O)c4ccccc4)[C@@]14O[C@@]3(C)COC(=O)c1cccnc1C(C)C(C)C(=O)O[C@@H]([C@H](OC(C)=O)[C@@H]2OC(C)=O)[C@]4(C)O` (some centres undefined) are 56.8 µg/mL (≈ 65.4 µM), 63.4 and 0.9 µg/mL (≈ 1.04 µM).
As to `CC(=O)OC[C@]12[C@H](OC(C)=O)[C@H](OC(C)=O)[C@@H]3[C@@H](OC(C)=O)[C@@]14O[C@@]3(C)COC(=O)c1cccnc1CCC(C)(O)C(=O)O[C@@H]([C@H](OC(=O)c1ccco1)[C@@H]2OC(C)=O)[C@]4(C)O` (some centres undefined) [WILFORTRINE], in the series on H9, the IC50 was > 100 µg/mL. Besides, in series [2], the selectivity ratio is > 1000. Also, in series [1], the EC50 is < 0.1 µg/mL.
`Cc1cn([C@H]2C[C@H](N=[N+]=[N-])[C@@H](CO)O2)c(=O)[nH]c1=O` [ZIDOVUDINE]: in series [1], the 50% effective concentration (EC50) is 0.012 µg/mL (≈ 0.0449 µM).
`CC(=O)OC[C@]12[C@H](OC(C)=O)[C@H](OC(C)=O)[C@@H]3[C@@H](OC(C)=O)[C@@]14O[C@@]3(C)COC(=O)c1cccnc1CCC(C)(O)C(=O)O[C@@H]([C@H](OC(=O)c1ccccc1)[C@@H]2OC(C)=O)[C@]4(C)O` (some centres undefined) [WILFORDINE] had an IC50 in the series with H9 of 20 µg/mL (≈ 22.6 µM). In series [2], the selectivity ratio was > 220. Besides, in series [1], the EC50 is < 0.1 µg/mL.
The matching figures for `CC(=O)OC[C@]12[C@H](OC(C)=O)[C@H](OC(C)=O)[C@@H]3[C@@H](O)[C@@]14O[C@@]3(C)COC(=O)c1cccnc1C(C)C(C)C(=O)O[C@@H]([C@H](OC(C)=O)[C@@H]2OC(C)=O)[C@]4(C)O` (some centres undefined) [NEOEUONYMINE]: > 100 µg/mL, > 113 and 0.884 µg/mL (≈ 1.16 µM).
Consider `CC(=O)OC[C@]12[C@H](OC(C)=O)[C@H](OC(C)=O)[C@@H]3[C@@H](OC(C)=O)[C@@]14O[C@@]3(C)COC(=O)c1cccnc1C(C)C(C)C(=O)O[C@@H]([C@H](OC(=O)c1ccccc1)[C@@H]2OC(C)=O)[C@@]4(C)O` (some centres undefined) [FORRESTINE], for which the concentration for half-maximal inhibition (IC50) with H9 is > 100 µg/mL. In series [2], the selectivity ratio was > 208. Further, the EC50 in series [1] stood at 0.48 µg/mL (≈ 0.553 µM).
As to `COC(=O)C[C@@H]1C(=O)CCC(C)C(=O)O[C@@H]2[C@@H]3[C@@H](OC(C)=O)[C@@]45O[C@@]3(C)COC(=O)c3cccnc3C(C)C(C)C(=O)O[C@@H]([C@H](OC(C)=O)[C@H](OC(C)=O)[C@@]4(COC1=O)[C@@H]2OC(C)=O)[C@]5(C)O` (some centres undefined) [TRIPTONINE A], the IC50 in the series with H9 was > 100 µg/mL. Moreover, the selectivity ratio in series [2] is > 39.4. In series [1], the EC50 amounted to 2.54 µg/mL (≈ 2.69 µM).
Consider `CC(=O)OC[C@]12[C@H](OC(C)=O)C(=O)[C@@H]3[C@@H](OC(C)=O)[C@@]14O[C@@]3(C)COC(=O)c1cccnc1C(C)C(C)C(=O)O[C@@H]([C@H](OC(C)=O)[C@@H]2OC(C)=O)[C@]4(C)O` (some centres undefined) [EVONINE], for which, in the series on H9, it took 21.2 µg/mL (≈ 27.8 µM) to reach half-maximal inhibition (IC50). Besides, the selectivity ratio in series [2] stood at 42.1. The EC50 in series [1] amounted to 0.503 µg/mL (≈ 0.66 µM).
For `CC(=O)OC[C@]12[C@H](OC(C)=O)[C@H](OC(C)=O)[C@@H]3[C@@H](OC(C)=O)[C@@]14O[C@@]3(C)COC(=O)c1cccnc1C(C)C(C)C(=O)O[C@@H]([C@H](OC(C)=O)[C@@H]2OC(C)=O)[C@]4(C)O` (some centres undefined) [EUONYMINE], the IC50 with H9 was 22.8 µg/mL (≈ 28.3 µM). Also, in series [2], the selectivity ratio came out at 113. In series [1], the EC50 turned out to be 0.203 µg/mL (≈ 0.252 µM).
Consider `CC(=O)O[C@@H]1[C@H](OC(C)=O)[C@@]2(COC(=O)c3ccco3)[C@H](OC(C)=O)C(=O)[C@@H]3[C@@H](OC(C)=O)[C@@]24O[C@@]3(C)COC(=O)c2cccnc2C(C)C(C)C(=O)O[C@@H]1[C@]4(C)O` (some centres undefined) [HYPONINE B], for which the IC50 in the series on H9 is > 100 µg/mL. In addition, in series [2], the selectivity ratio was > 1000. Also, the EC50 in series [1] was 0.1 µg/mL (≈ 0.123 µM).
The molecule `CC(=O)OC[C@]12[C@H](OC(C)=O)[C@H](OC(C)=O)[C@@H]3[C@@H](OC(=O)c4ccco4)[C@@]14O[C@@]3(C)COC(=O)c1cccnc1C(C)C(C)C(=O)O[C@@H]([C@H](OC(C)=O)[C@@H]2OC(C)=O)[C@]4(C)O` (some centres undefined) [HYPONINE A] had an IC50 with H9 of 27.7 µg/mL (≈ 32.3 µM). Besides, the selectivity ratio in series [2] was determined as 27.7. In series [1], the EC50 was 1 µg/mL (≈ 1.17 µM).
Turning to `CC(=O)OC[C@]12[C@H](OC(C)=O)[C@H](OC(C)=O)[C@@H]3[C@@H](OC(C)=O)[C@@]14O[C@@]3(C)COC(=O)c1cccnc1CCC(C)C(=O)O[C@@H]([C@H](OC(=O)c1ccccc1)[C@@H]2OC(C)=O)[C@]4(C)O` (some centres undefined) [WILFORINE], the IC50 in the series with H9 is > 100 µg/mL. The outcome in series [1] was inactive.
Take `CC(=O)O[C@@H]1[C@@H]2[C@@H](OC(C)=O)[C@@]34O[C@@]2(C)COC(=O)c2cnccc2C(C)C(C)(O)C(=O)O[C@@H]([C@H](OC(C)=O)[C@H](OC(C)=O)[C@@]3(COC(=O)c2ccco2)[C@@H]1OC(C)=O)[C@]4(C)O` (some centres undefined) [HYPOGLAUNINE A]: the IC50 in the series with H9 was > 100 µg/mL. The selectivity ratio in series [2] was > 769. In addition, the EC50 in series [1] is 0.13 µg/mL (≈ 0.149 µM).
With `CC(=O)OC[C@]12[C@H](OC(C)=O)[C@H](OC(C)=O)[C@@H]3[C@@H](OC(C)=O)[C@@]14O[C@@]3(C)COC(=O)c1cccnc1CCC(C)C(=O)O[C@@H]([C@H](OC(=O)c1ccco1)[C@@H]2OC(C)=O)[C@]4(C)O` (some centres undefined) [WILFORGINE], in the series with H9, the IC50 is > 100 µg/mL. Besides, the result in series [1] was inactive.
In the series with H9, `CC(=O)O[C@@H]1[C@@H]2[C@@H](OC(C)=O)[C@@]34O[C@@]2(C)COC(=O)c2cnccc2C(C)C(C)C(=O)O[C@@H]([C@H](OC(C)=O)[C@H](OC(C)=O)[C@@]3(COC(=O)c2ccco2)[C@@H]1OC(C)=O)[C@]4(C)O` (some centres undefined) [HYPOGLAUNINE D] had an IC50 of 22.2 µg/mL (≈ 25.9 µM). In series [1], the outcome was inactive.
For the molecule `COC(=O)C[C@@H]1C(=O)CC[C@H](C)C(=O)O[C@@H]2[C@@H]3[C@@H](OC(C)=O)[C@@]45O[C@@]3(C)COC(=O)c3cnccc3[C@@H](C)[C@@](C)(O)C(=O)O[C@@H]([C@H](OC(C)=O)[C@H](OC(C)=O)[C@@]4(COC1=O)[C@@H]2OC(C)=O)[C@]5(C)O`, the IC50 in the series with H9 is > 100 µg/mL. Besides, in series [2], the selectivity ratio is > 1000. Besides, the EC50 in series [1] is < 0.1 µg/mL.
Regarding `CC(=O)OC[C@]12[C@H](OC(C)=O)[C@H](OC(=O)c3cccnc3)[C@@H]3[C@@H](OC(=O)c4ccco4)[C@@]14O[C@@]3(C)COC(=O)c1cccnc1C(C)C(C)C(=O)O[C@@H]([C@H](OC(C)=O)[C@@H]2OC(C)=O)[C@]4(C)O` (some centres undefined) [HYPONINE E], in the series with H9, the IC50 was found to be 1.95 µg/mL (≈ 2.12 µM). Further, in series [2], the selectivity ratio was 11.3. Besides, in series [1], the EC50 was found to be 0.17 µg/mL (≈ 0.185 µM).
